Conditions: Week 12; >=50% AEC reduction at Week 16

Compound: CCCN[C@@H]1CCc2nc(N)sc2C1 [Dexpramipexole, (6R)-2-amino-4,5,6,7-tetrahydro-6-(propylamino)benzothiazole]
- Pre-BD FEF25-75 % change from baseline, Max: 14%
- Pre-BD FEF25-75 % change from baseline, Mean ± SD: 6.3 ± 8.24%
- Pre-BD FEF25-75 % change from baseline, Median: 6.8%
- Pre-BD FEF25-75 % change from baseline, Min: −2%
- Pre-BD FEF25-75 % change from baseline, Q1: −2%
- Pre-BD FEF25-75 % change from baseline, Q3: 14%
- Pre-BD FEF25-75 Observed, Max: 900 mL/s
- Pre-BD FEF25-75 Observed, Mean ± SD: 640.0 ± 351.57 mL/s
- Pre-BD FEF25-75 Observed, Median: 780.0 mL/s
- Pre-BD FEF25-75 Observed, Min: 240 mL/s
- Pre-BD FEF25-75 Observed, Q1: 240 mL/s
- Pre-BD FEF25-75 Observed, Q3: 900 mL/s
- Pre-BD FEF25-75 change from baseline, Max: 50 mL/s
- Pre-BD FEF25-75 change from baseline, Mean ± SD: 20.0 ± 36.06 mL/s
- Pre-BD FEF25-75 change from baseline, Median: 30.0 mL/s
- Pre-BD FEF25-75 change from baseline, Min: -20 mL/s
- Pre-BD FEF25-75 change from baseline, Q1: -20 mL/s
- Pre-BD FEF25-75 change from baseline, Q3: 50 mL/s
- Pre-BD FEV1 % change from baseline, Max: 37%
- Pre-BD FEV1 % change from baseline, Mean ± SD: 25.3 ± 19.37%
- Pre-BD FEV1 % change from baseline, Median: 36. %
- Pre-BD FEV1 % change from baseline, Min: 3%
- Pre-BD FEV1 % change from baseline, Q1: 3%
- Pre-BD FEV1 % change from baseline, Q3: 37%
- Pre-BD FEV1 Observed, Max: 1780 mL
- Pre-BD FEV1 Observed, Mean ± SD: 1496.7 ± 448.14 mL
- Pre-BD FEV1 Observed, Median: 1730.0 mL
- Pre-BD FEV1 Observed, Min: 980 mL
- Pre-BD FEV1 Observed, Q1: 980 mL
- Pre-BD FEV1 Observed, Q3: 1780 mL
- Pre-BD FEV1 change from baseline, Max: 480 mL
- Pre-BD FEV1 change from baseline, Mean ± SD: 263.3 ± 215.02 mL
- Pre-BD FEV1 change from baseline, Median: 260.0 mL
- Pre-BD FEV1 change from baseline, Min: 50 mL
- Pre-BD FEV1 change from baseline, Q1: 50 mL
- Pre-BD FEV1 change from baseline, Q3: 480 mL
- Pre-BD FVC % change from baseline, Max: 18%
- Pre-BD FVC % change from baseline, Mean ± SD: 12.0 ± 5.17%
- Pre-BD FVC % change from baseline, Median: 11.1%
- Pre-BD FVC % change from baseline, Min: 7%
- Pre-BD FVC % change from baseline, Q1: 7%
- Pre-BD FVC % change from baseline, Q3: 18%
- Pre-BD FVC Observed, Max: 2800 mL
- Pre-BD FVC Observed, Mean ± SD: 2690.0 ± 181.93 mL
- Pre-BD FVC Observed, Median: 2790.0 mL
- Pre-BD FVC Observed, Min: 2480 mL
- Pre-BD FVC Observed, Q1: 2480 mL
- Pre-BD FVC Observed, Q3: 2800 mL
- Pre-BD FVC change from baseline, Max: 370 mL
- Pre-BD FVC change from baseline, Mean ± SD: 280.0 ± 90.00 mL
- Pre-BD FVC change from baseline, Median: 280.0 mL
- Pre-BD FVC change from baseline, Min: 190 mL
- Pre-BD FVC change from baseline, Q1: 190 mL
- Pre-BD FVC change from baseline, Q3: 370 mL
- Pre-BD Peak Flow % change from baseline, Max: 82%
- Pre-BD Peak Flow % change from baseline, Mean ± SD: 31.8 ± 45.54%
- Pre-BD Peak Flow % change from baseline, Median: 21.9%
- Pre-BD Peak Flow % change from baseline, Min: −8%
- Pre-BD Peak Flow % change from baseline, Q1: −8%
- Pre-BD Peak Flow % change from baseline, Q3: 82%
- Pre-BD Peak Flow Observed, Max: 285 L/min
- Pre-BD Peak Flow Observed, Mean ± SD: 208.7 ± 66.53 L/min
- Pre-BD Peak Flow Observed, Median: 178.0 L/min
- Pre-BD Peak Flow Observed, Min: 163 L/min
- Pre-BD Peak Flow Observed, Q1: 163 L/min
- Pre-BD Peak Flow Observed, Q3: 285 L/min
- Pre-BD Peak Flow change from baseline, Max: 128 L/min
- Pre-BD Peak Flow change from baseline, Mean ± SD: 48.7 ± 72.45 L/min
- Pre-BD Peak Flow change from baseline, Median: 32.0 L/min
- Pre-BD Peak Flow change from baseline, Min: -14 L/min
- Pre-BD Peak Flow change from baseline, Q1: -14 L/min
- Pre-BD Peak Flow change from baseline, Q3: 128 L/min
